Test results reported in the supplement of paper PMC10627819.

Legend:
B. subtilis 168 [1] = test: fitness (endpoint OD595 vs no drug) (fraction); higher = more growth
Outline: (§1)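 Volumes were 30 µl per well, or 55 µl for S. pneumoniae, in 384-well plates inoculated at OD595 0.01. Media were TSB, LB Lennox or CY at 37 °C, and OD595 was read every 30 min for 14 h with first-reading background subtraction. Fitness is the ratio of optical density at stationary-phase entry to the robust mean of no-drug controls. That ratio is capped at 1.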

S. pneumoniae D39V [2] = test: as above
Outline: as §1

S. aureus DSM 20231 = test: Bliss interaction score (quartile over a dose matrix) (fitness difference); higher = more antagonism (negative = synergy)
Outline: (§2)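 Each plate was normalised to the robust mean of its own no-drug wells, using OD595 at entry into stationary phase, with values capped at 1. This normalised growth is the fitness value. The Bliss score is the difference between observed and product-expected fitness, with single-drug fitness inferred from the combination data and quartiles taken over technical, biological and donor/recipient replicates.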

B. subtilis 168 [3] = test: as above
Outline: as §2

S. pneumoniae D39V [4] = test: as above
Outline: as §2

S. aureus Newman = test: as above
Outline: as §2
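Wherever Bliss interaction score (quartile over a dose matrix) is given: first quartile when negative (synergy) and third quartile when positive (antagonism).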

C[C@H]1c2cccc(O)c2C(=O)C2=C(O)[C@]3(O)C(=O)C(C(N)=O)=C(O)[C@@H](N(C)C)[C@@H]3[C@@H](O)[C@@H]21 [Doxycycline] + C[C@H]1COc2c(N3CCN(C)CC3)c(F)cc3c(=O)c(C(=O)O)cn1c23 [Levofloxacin]
fitness, one replicate
Conditions	first compound 0.003875 µg/mL	first compound 0.00775 µg/mL	first compound 0.02 µg/mL	first compound 0.031 µg/mL	first compound 0.04 µg/mL	first compound 0.062 µg/mL	first compound 0.08 µg/mL
B. subtilis 168 [1], partner 0.001 µg/mL	–	–	0.929	–	0.859	–	0.735
B. subtilis 168 [1], partner 0.0078 µg/mL	–	–	0.989	–	0.859	–	0.712
S. pneumoniae D39V [2], partner 0.2 µg/mL	0.984	0.927	–	0.822	–	0.712	–
S. pneumoniae D39V [2], partner 0.4 µg/mL	0.858	0.838	–	0.816	–	0.687	–
S. pneumoniae D39V [2], partner 0.8 µg/mL	0.581	0.62	–	0.697	–	0.595	–

Conditions	fitness
B. subtilis 168 [1], first compound 0.02 µg/mL, partner 0.002 µg/mL	0.937
B. subtilis 168 [1], first compound 0.02 µg/mL, partner 0.0039 µg/mL	0.939
B. subtilis 168 [1], first compound 0.02 µg/mL, partner 0.0312 µg/mL	0.0328
B. subtilis 168 [1], first compound 0.02 µg/mL, partner 0.0625 µg/mL	0.0358
B. subtilis 168 [1], first compound 0.02 µg/mL, partner 0.125 µg/mL	0.0474
B. subtilis 168 [1], first compound 0.04 µg/mL, partner 0.002 µg/mL	0.784
B. subtilis 168 [1], first compound 0.04 µg/mL, partner 0.0039 µg/mL	0.817
B. subtilis 168 [1], first compound 0.04 µg/mL, partner 0.0312 µg/mL	0.0347
B. subtilis 168 [1], first compound 0.04 µg/mL, partner 0.0625 µg/mL	0.032
B. subtilis 168 [1], first compound 0.04 µg/mL, partner 0.125 µg/mL	0.0298
B. subtilis 168 [1], first compound 0.08 µg/mL, partner 0.002 µg/mL	0.656
B. subtilis 168 [1], first compound 0.08 µg/mL, partner 0.0039 µg/mL	0.681
B. subtilis 168 [1], first compound 0.08 µg/mL, partner 0.0312 µg/mL	0.0307
B. subtilis 168 [1], first compound 0.08 µg/mL, partner 0.0625 µg/mL	0.0405
B. subtilis 168 [1], first compound 0.08 µg/mL, partner 0.125 µg/mL	0.0329
S. pneumoniae D39V [2], first compound 0.0155 µg/mL, partner 0.1725 µg/mL	0.895
S. pneumoniae D39V [2], first compound 0.0155 µg/mL, partner 0.2 µg/mL	0.946
S. pneumoniae D39V [2], first compound 0.0155 µg/mL, partner 0.345 µg/mL	0.805
S. pneumoniae D39V [2], first compound 0.0155 µg/mL, partner 0.4 µg/mL	0.887
S. pneumoniae D39V [2], first compound 0.0155 µg/mL, partner 0.69 µg/mL	0.584
S. pneumoniae D39V [2], first compound 0.0155 µg/mL, partner 0.8 µg/mL	0.677
S. pneumoniae D39V [2], first compound 0.031 µg/mL, partner 0.1725 µg/mL	0.889
S. pneumoniae D39V [2], first compound 0.031 µg/mL, partner 0.345 µg/mL	0.795
S. pneumoniae D39V [2], first compound 0.031 µg/mL, partner 0.69 µg/mL	0.485
S. pneumoniae D39V [2], first compound 0.062 µg/mL, partner 0.1725 µg/mL	0.873
S. pneumoniae D39V [2], first compound 0.062 µg/mL, partner 0.345 µg/mL	0.775
S. pneumoniae D39V [2], first compound 0.062 µg/mL, partner 0.69 µg/mL	0.652

Conditions	Bliss interaction score
B. subtilis 168 [3]	0.043
S. aureus DSM 20231	0.075
S. aureus Newman	0.0574
S. pneumoniae D39V [4]	0.0649

COc1cccc2c1C(=O)c1c(O)c3c(c(O)c1C2=O)C[C@@](O)(C(=O)CO)C[C@@H]3O[C@H]1C[C@H](N)[C@H](O)[C@H](C)O1 [Doxorubicin] + C[C@H]1COc2c(N3CCN(C)CC3)c(F)cc3c(=O)c(C(=O)O)cn1c23 [Levofloxacin]
fitness, B. subtilis 168 [1], one replicate
Conditions	first compound 0.625 µg/mL	first compound 1.25 µg/mL	first compound 2.5 µg/mL
partner 0.001 µg/mL	≥ 1	0.98	0.943
partner 0.0078 µg/mL	0.888	0.894	0.567

Conditions	fitness
B. subtilis 168 [1], first compound 0.625 µg/mL, partner 0.002 µg/mL	0.93
B. subtilis 168 [1], first compound 0.625 µg/mL, partner 0.0039 µg/mL	0.927
B. subtilis 168 [1], first compound 0.625 µg/mL, partner 0.0312 µg/mL	0.0411
B. subtilis 168 [1], first compound 0.625 µg/mL, partner 0.0625 µg/mL	0.0463
B. subtilis 168 [1], first compound 0.625 µg/mL, partner 0.125 µg/mL	0.0495
B. subtilis 168 [1], first compound 1.25 µg/mL, partner 0.002 µg/mL	0.901
B. subtilis 168 [1], first compound 1.25 µg/mL, partner 0.0039 µg/mL	0.873
B. subtilis 168 [1], first compound 1.25 µg/mL, partner 0.0312 µg/mL	0.0455
B. subtilis 168 [1], first compound 1.25 µg/mL, partner 0.0625 µg/mL	0.0566
B. subtilis 168 [1], first compound 1.25 µg/mL, partner 0.125 µg/mL	0.0562
B. subtilis 168 [1], first compound 2.5 µg/mL, partner 0.002 µg/mL	0.791
B. subtilis 168 [1], first compound 2.5 µg/mL, partner 0.0039 µg/mL	0.73
B. subtilis 168 [1], first compound 2.5 µg/mL, partner 0.0312 µg/mL	0.031
B. subtilis 168 [1], first compound 2.5 µg/mL, partner 0.0625 µg/mL	0.0389
B. subtilis 168 [1], first compound 2.5 µg/mL, partner 0.125 µg/mL	0.0379
S. pneumoniae D39V [2], first compound 0.25 µg/mL, partner 0.1725 µg/mL	0.853
S. pneumoniae D39V [2], first compound 0.25 µg/mL, partner 0.2 µg/mL	0.904
S. pneumoniae D39V [2], first compound 0.25 µg/mL, partner 0.345 µg/mL	0.776
S. pneumoniae D39V [2], first compound 0.25 µg/mL, partner 0.4 µg/mL	0.834
S. pneumoniae D39V [2], first compound 0.25 µg/mL, partner 0.69 µg/mL	0.509
S. pneumoniae D39V [2], first compound 0.5 µg/mL, partner 0.1725 µg/mL	0.941
S. pneumoniae D39V [2], first compound 0.5 µg/mL, partner 0.2 µg/mL	0.942
S. pneumoniae D39V [2], first compound 0.5 µg/mL, partner 0.345 µg/mL	0.871
S. pneumoniae D39V [2], first compound 0.5 µg/mL, partner 0.4 µg/mL	0.831
S. pneumoniae D39V [2], first compound 0.5 µg/mL, partner 0.69 µg/mL	0.571
S. pneumoniae D39V [2], first compound 1 µg/mL, partner 0.1725 µg/mL	0.875
S. pneumoniae D39V [2], first compound 1 µg/mL, partner 0.2 µg/mL	0.854
S. pneumoniae D39V [2], first compound 1 µg/mL, partner 0.345 µg/mL	0.798
S. pneumoniae D39V [2], first compound 1 µg/mL, partner 0.4 µg/mL	0.736
S. pneumoniae D39V [2], first compound 1 µg/mL, partner 0.69 µg/mL	0.548
S. pneumoniae D39V [2], first compound 1 µg/mL, partner 0.8 µg/mL	0.342

Conditions	Bliss interaction score
B. subtilis 168 [3]	0.0423
S. aureus DSM 20231	0.0678
S. aureus Newman	0.133
S. pneumoniae D39V [4]	-0.0424

COc1cccc2c1C(=O)c1c(O)c3c(c(O)c1C2=O)C[C@@](O)(C(=O)CO)C[C@@H]3O[C@H]1C[C@H](N)[C@H](O)[C@H](C)O1 [Doxorubicin] + CN(C)C(=O)C(CCN1CCC(O)(c2ccc(Cl)cc2)CC1)(c1ccccc1)c1ccccc1 [Loperamide]
Conditions	fitness
B. subtilis 168 [1], first compound 0.625 µg/mL, partner 50 µg/mL	0.0285
B. subtilis 168 [1], first compound 0.625 µg/mL, partner 100 µg/mL	0.0284
B. subtilis 168 [1], first compound 1.25 µg/mL, partner 50 µg/mL	0.0281
B. subtilis 168 [1], first compound 1.25 µg/mL, partner 100 µg/mL	0.0427
B. subtilis 168 [1], first compound 2.5 µg/mL, partner 25 µg/mL	0.0131
B. subtilis 168 [1], first compound 2.5 µg/mL, partner 50 µg/mL	0.0232
B. subtilis 168 [1], first compound 2.5 µg/mL, partner 100 µg/mL	0.019
S. pneumoniae D39V [2], first compound 0.25 µg/mL, partner 17.14 µg/mL	0.905
S. pneumoniae D39V [2], first compound 0.25 µg/mL, partner 20 µg/mL	≥ 1
S. pneumoniae D39V [2], first compound 0.25 µg/mL, partner 34.28 µg/mL	0.884
S. pneumoniae D39V [2], first compound 0.25 µg/mL, partner 40 µg/mL	≥ 1
S. pneumoniae D39V [2], first compound 0.5 µg/mL, partner 17.14 µg/mL	0.915
S. pneumoniae D39V [2], first compound 0.5 µg/mL, partner 20 µg/mL	≥ 1
S. pneumoniae D39V [2], first compound 0.5 µg/mL, partner 34.28 µg/mL	0.899
S. pneumoniae D39V [2], first compound 0.5 µg/mL, partner 40 µg/mL	≥ 1
S. pneumoniae D39V [2], first compound 1 µg/mL, partner 17.14 µg/mL	0.912
S. pneumoniae D39V [2], first compound 1 µg/mL, partner 20 µg/mL	0.991
S. pneumoniae D39V [2], first compound 1 µg/mL, partner 34.28 µg/mL	0.902
S. pneumoniae D39V [2], first compound 1 µg/mL, partner 40 µg/mL	0.967

S. pneumoniae D39V [2], partner 68.57 µg/mL, one replicate
Conditions	fitness
first compound 0.25 µg/mL	0.87
first compound 0.5 µg/mL	0.872
first compound 1 µg/mL	0.929

Conditions	Bliss interaction score
B. subtilis 168 [3]	-0.228
S. aureus DSM 20231	-0.0983
S. aureus Newman	-0.0664
S. pneumoniae D39V [4]	0.0787

O=C(O)c1cn(C2CC2)c2cc(N3CCNCC3)c(F)cc2c1=O [Ciprofloxacin] + CC(=O)NC[C@H]1CN(c2ccc(N3CCOCC3)c(F)c2)C(=O)O1 [Linezolid]
one replicate
Conditions	fitness
B. subtilis 168 [1], first compound 0.0098 µg/mL, partner 0.0625 µg/mL	0.889
B. subtilis 168 [1], first compound 0.0195 µg/mL, partner 0.0625 µg/mL	0.856
B. subtilis 168 [1], first compound 0.039 µg/mL, partner 0.0625 µg/mL	0.417
S. pneumoniae D39V [2], first compound 0.25 µg/mL, partner 0.2 µg/mL	0.442
S. pneumoniae D39V [2], first compound 0.25 µg/mL, partner 0.4 µg/mL	0.28
S. pneumoniae D39V [2], first compound 0.25 µg/mL, partner 0.8 µg/mL	0.154

Conditions	fitness
B. subtilis 168 [1], first compound 0.0195 µg/mL, partner 0.125 µg/mL	0.609
B. subtilis 168 [1], first compound 0.0195 µg/mL, partner 0.5 µg/mL	0.334
B. subtilis 168 [1], first compound 0.039 µg/mL, partner 0.125 µg/mL	0.394
B. subtilis 168 [1], first compound 0.039 µg/mL, partner 0.5 µg/mL	0.263
S. pneumoniae D39V [2], first compound 0.125 µg/mL, partner 0.105 µg/mL	0.788
S. pneumoniae D39V [2], first compound 0.125 µg/mL, partner 0.2 µg/mL	0.567
S. pneumoniae D39V [2], first compound 0.125 µg/mL, partner 0.21 µg/mL	0.712
S. pneumoniae D39V [2], first compound 0.125 µg/mL, partner 0.4 µg/mL	0.298
S. pneumoniae D39V [2], first compound 0.125 µg/mL, partner 0.42 µg/mL	0.536
S. pneumoniae D39V [2], first compound 0.125 µg/mL, partner 0.8 µg/mL	0.146
S. pneumoniae D39V [2], first compound 0.25 µg/mL, partner 0.105 µg/mL	0.776
S. pneumoniae D39V [2], first compound 0.25 µg/mL, partner 0.21 µg/mL	0.7
S. pneumoniae D39V [2], first compound 0.25 µg/mL, partner 0.42 µg/mL	0.551
S. pneumoniae D39V [2], first compound 0.5 µg/mL, partner 0.105 µg/mL	0.61
S. pneumoniae D39V [2], first compound 0.5 µg/mL, partner 0.2 µg/mL	0.443
S. pneumoniae D39V [2], first compound 0.5 µg/mL, partner 0.21 µg/mL	0.569
S. pneumoniae D39V [2], first compound 0.5 µg/mL, partner 0.4 µg/mL	0.252
S. pneumoniae D39V [2], first compound 0.5 µg/mL, partner 0.42 µg/mL	0.414
S. pneumoniae D39V [2], first compound 0.5 µg/mL, partner 0.8 µg/mL	0.119

Conditions	Bliss interaction score
B. subtilis 168 [3]	0.247
S. aureus DSM 20231	0.0785
S. aureus Newman	0.081
S. pneumoniae D39V [4]	0.0563
